From patent US20070099915A1, “INHIBITORS OF THE HIV INTEGRASE ENZYME” (PFIZER INC., priority 2005, published 2007)

Columns and labels:
HIV-1 = HIV-1 infected patients; S. Little et al., CROI 2005, Abstract 161; cited from earlier work
[1] = biological target: T1, Full-length wild type HIV-1 integrase (SF1) (Human immunodeficiency virus type 1 group M subtype B, UniProt P04585); assay: Integrase strand-transfer scintillation proximity assay; assay type: biochemical; settings: strand-transfer SPA, 246 nM integrase, 50 nM host DNA, 37° C., 50 min; read-out: IC50
T1 construct: made in house; host or cells: E. coli BL21 (DE3)

[2] = system: HIV-1 RF virus in CEM-SS cells; assay: HIV-1 cell protection assay (XTT dye reduction); assay type: cell-based; settings: Human immunodeficiency virus 1, 144 h; RF strain of HIV-1, CEM-SS cells, XTT read-out after six days; read-out: EC50
How it was run: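 Infected CEM-SS cultures incubated six days, then XTT with phenazine methosulfate added for 4 h; viability read as formazan absorbance at 450 nm. Formazan expressed as percent of uninfected, compound-free cells; CC50 from uninfected treated cells, therapeutic index as CC50/EC50.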

| SMILES | clinical efficacy in the treatment of HIV-infected patients (HIV-1) | IC50 [1] [nM] | EC50 [2] [nM] |
| --- | --- | --- | --- |
| O=C(NCc1ccc(F)cc1)c1nc(N2CCCCS2(=O)=O)c2cccnc2c1O [Example L-000870810] | showed clinical efficacy |  |  |
| Cc1cccc(COCc2cn(Cc3ccc(F)cc3)c3cnc4c(c23)CCN(O)C4=O)n1 [Example 78, 3-(4-fluorobenzyl)-7-hydroxy-1-{[(6-methylpyridin-2-yl)methoxy]methyl}-3,7,8,9-tetrahydro-6H-pyrrolo[2,3-c]-1,7-naphthyridin-6-one] |  | 11 | 0.6 |
| COC1CCN(Cc2cn(Cc3ccc(F)cc3)c3cnc4c(c23)CCN(O)C4=O)CC1 [Example 100, 3-(4-fluorobenzyl)-7-hydroxy-1-[(4-methoxypiperidin-1-yl)methyl]-3,7,8,9-tetrahydro-6H-pyrrolo[2,3-c]-1,7-naphthyridin-6-one] |  | 21 | 0.7 |
